{
  "source": "paper PMC8448819",
  "about": "“The Arabidopsis MIK2 receptor elicits immunity by sensing a conserved signature from phytocytokines and microbes” (Nature Communications, 2021)",
  "system": "Arabidopsis WT seedling roots",
  "assay": "Microscopy of root browning and root meristems, WT",
  "type": "in vivo, Arabidopsis thaliana",
  "data": [
    {"sequence": "PNGDIFTGPSGSGHGGGR [SCOOP10B, synthesized SCOOP peptide corresponding to the SxS motif]", "values": [
      {"measurement": "root browning", "setting": "WT seedlings, prolonged treatment", "result": "led to brown roots"},
      {"measurement": "root meristem distortion", "setting": "WT, 5-day-old seedlings, 1 µM, 48 h, PI staining", "result": "distorted root meristems"}
    ]}
  ]
}
